Where two headings read alike, the source gives them in different places. Peptide text beside a SMILES is read from it. * marks the point of attachment. Cbz = O=C(OCc1ccccc1)*
Columns and labels:
[1] = tested on: non-senescent WI-38 cells (NC); assay: Cell viability (PI flow cytometry), LD50 in non-senescent WI-38 cells; assay type: cell-based, human
Description: (§1) Mouse embryonic fibroblasts (MEF) were isolated from mouse embryos as described^1. All cells were cultured in a complete medium (CM) (Dulbecco's Modified Eagle Medium supplemented with 10% fetal bovine serum [FBS], 100 U/ml penicillin, and 100 μg/ml streptomycin [all from Atlanta Biologicals, Norcross, Ga., and USA]) in a humidified incubator at 37° C. and 5% CO2. Low passages of WI-38 cells (<25), IMR-90 (<25), REC cells (<25) and MEF (<3) were used as non-senescent controls or for induction of senescence to avoid replicative senescence. […] To induce senescence by expression of oncogenic Ras (Ras^V12), WI-38 cells were infected with the retroviruses pBabe-H-Ras or pBabe-puro (control) (Addgene, Cambridge, Mass., UAS)^2, 3. […] Senescent cells were maintained in culture for a few days, changing the culture medium every 3 days until use. For in vitro cell culture experiments, we usually repeated the experiments for at least three times to ensure the reproducibility of the data. In addition, the repeats of the experiments for three times will allow us to obtain 3 independent observations for statistical analysis.
(§2) Flow cytometry: Non-senescent and senescent cells were seeded into wells of 24- or 48-well at about 70% of confluence. […] Both quiescent non-senescent cells and permanently growth arrested senescent cells were treated with vehicle (0.1% DMSO or PBS) or increasing concentrations of the compounds listed in Table 1 for various durations. […] After incubated with propidium iodide (PI 100 ng/ml) in PBS at room temperature for 1 min, cells were centrifuged at 1200 rpm for 6 min and then resuspended in PBS with 2% of FBS for analysis by a BD LSR II flow cytometer (BD Biosciences, San Jose, Calif., USA). Viable cells (PI^− cells) were numerated by flow cytometry at a constant flow rate and calculated as a percentage of control cells treated with vehicle using the formula: percentage of control=(Ndrug/NC)×100, where Ndrug and NC represent the absolute number of PI^− viable cells of drug-treated and vehicle-treated cells, respectively.
(§3) MTT (3-[4,5-dimethylthiazol-2-yl]-2,5 diphenyl tetrazolium bromide) assay: Cells were harvested, washed and resuspended in CM and added to wells of 24- or 48-well plates as described above. […] After 4 h at 37° C., the formazan was solubilized by lysing the cells with 300 μl of DMSO. Absorbance of formazan was measured at 595 nm using a Microplate Reader (BioTek, Winooski, Vt., USA). Cell viability was calculated in the method as previously described^4.
(§4) Trypan blue exclusion assay: Cells were harvested, washed and resuspended in CM and added to wells of a 6-well plate as described above. […] Living cells stained negative for trypan blue and were counted under light microscopy.
(§5) Briefly, Probit (set as y) was determined by looking up their correspondence to the % responded in Finney's table. The log of the compound concentrations was used as x. By fitting a line of regression, we produce the formula y=ax+b.

[2] = tested on: IR-induced senescent WI-38 cells (SC); assay: Cell viability (PI flow cytometry), LD50 in IR-induced senescent WI-38 cells; assay type: cell-based, human; settings: for LD50 Ratio (NC/SC): non-senescent vs IR-induced senescent WI-38 cells
Description: as §1, §2, §3, §4, §5

[3] = tested on: senescent cells in TBI p16-3MR mice; assay: Senescent cell clearance in TBI p16-3MR mice (luminescence, p16 mRNA); assay type: in vivo, mouse; settings: 6 Gy TBI; 2 treatment cycles
Description: ABT was given by gavage at 50 mg/kg/d for 7 d per cycle for 2 cycles with a 2-wk interval. GCV was given to the mice by ip injection at 25 mg/kg/d for 5 d per cycle for 2 cycles with a 2-wk interval. […] The mice were euthanized the day after the imaging by CO2 inhalation and followed by cervical dislocation. Tissues were harvested for immediate tissue luminescence imaging as described below or RNA extraction for analyses of p16, IL-1α, CCL-5, and CXCL-10 mRNA levels by qRT-PCR.
For in vivo luminescence, mice were injected i.p. with 250 μl of Xenolight RediJect Coelenterazine h (100 μg/mL, Calipers-PerkinElmer, Waltham, Mass., USA). The mice were anesthetized with 4% isoflurane gas at 1 L/minute oxygen flow 5 min after the injection. Luminescence images were acquired using a Xenogen IVIS-200 Optical In Vivo imaging System equipped with a Living Image Version 4.3.1 (Caliper Life Sciences, Hopkinton Mass., USA). Mice were oriented in a supine position in the scanner. […]
For tissue luminescence imaging, after harvested from euthanized mice, tissues were immediately soaked in pre-warmed (37° C.) PBS with 2% FBS and 1:10 dilution of Xenolight RediJect Coelenterazine h for 10 min. They were transferred into a new 35-mm dish and luminescence images were taken 12-15 min after soaking in the substrate solution using a Xenogen IVIS-200 Optical In Vivo imaging System. […]

[4] = tested on: wild-type or p16-3MR mice; settings: at the doses used; cited from earlier work
[5] = tested on: IL-1α, TNFα, CCL-5, CXCL-10 mRNA; assay: SASP mRNA levels in lungs of TBI p16-3MR mice (qRT-PCR); assay type: in vivo, mouse; settings: 6 Gy TBI; 2 treatment cycles
Description: To measure p21 and GAPDH mRNA levels in WI-38 cells and IL-1α, TNFα, CCL-5, and CXCL-10 mRNA levels in mouse tissues, SYBR assay kit was used (Applied biosystems in life technologies). Briefly, 1 μl cDNA was mixed with 7.5 μl SYBR Green PCR Master Mix and 0.2 μl of primers (Table 5). Samples were then added with 6.30 μl of H2O to give a total 15 μl of mixture. qPCR conditions were as follows: 95° C. for 10 min, 40×(95° C. for 15 s and 60° C. for 1 min), 95° C. for […], 95° C. for 15 min. All reactions were run in triplicate on an ABI StepOnePlus Real-Time PCR System.

[6] = Homo sapiens, WI-38 fibroblasts, non-senescent, LD50 by Probit Analysis, read-out: LD50 (μM) for non-senescent cells (NC)
[7] = Homo sapiens, WI-38 fibroblasts, IR-induced senescent, LD50 by Probit Analysis, read-out: LD50 (μM) for senescent cells (SC)
[8] = WI-38 fibroblasts, non-senescent, LD50 by Probit Analysis, read-out: LD50 (μM) for non-senescent cells (NC)
[9] = WI-38 fibroblasts, IR-induced senescent, LD50 by Probit Analysis, read-out: LD50 (μM) for senescent cells (SC)
[10] = Homo sapiens, WI-38, read-out: LD50 (μM) for non-senescent cells (NC)
[11] = Homo sapiens, WI-38, read-out: LD50 (μM) for senescent cells (SC)

Compound | CC50 [1, 6] | IC50 [2, 7] | LD50 Ratio (NC/SC) [2] | CC50 [1, 8] | IC50 [2, 9] | also measured
O=CC[C@@H](O)[C@H](O)[C@H](O)CO [2-Deoxy-D-glucose] | 4800 µM | 8890 µM | 0.5 |  |  | 
O=C(O)C(=O)CBr [3-bromopyruvate] |  |  | 0.8 | 280.00 µM | 370.00 µM | 
CC1(C)CCC(CN2CCN(c3ccc(C(=O)NS(=O)(=O)c4ccc(NCC5CCOCC5)c([N+](=O)[O-])c4)c(Oc4cnc5[nH]ccc5c4)c3)CC2)=C(c2ccc(Cl)cc2)C1 [ABT199] | > 10 µM | > 10 µM |  |  |  | selective killing of SCs (viable WI-38 cells, NC vs IR-SC) ([2]; 5 μM ABT199, 0.5 μM WEHI539, or both, 72 h): did not selectively kill SCs
CC(=O)OC[C@H]1O[C@@H]([S-])[C@H](OC(C)=O)[C@@H](OC(C)=O)[C@@H]1OC(C)=O.CCP(CC)CC.[Au+] [Auranofin] |  |  | 1.0 | 5.13 µM | 5.34 µM | 
Cc1ccc2nc(NCCN)c3ncc(C)n3c2c1 [BMS345541] | 6.87 µM | 10.8 µM | 0.6 |  |  | 
CC(C)C[C@H](NC(=O)[C@H](Cc1ccccc1)NC(=O)c1cnccn1)B(O)O [Bortzomib] |  |  | 0.7 | 0.016 µM | 0.024 µM | 
CCCCS(=N)(=O)CCC(N)C(=O)O (stereo not shown) [Buthionine sulfoximine] | 2340 µM | 2390 µM | 1.0 |  |  | 
O=C(O)CCCCC(CCSCc1ccccc1)SCc1ccccc1 (stereo not shown) [CPI-613] | 223 µM | 205 µM | 1.1 |  |  | 
CCCCCCCCCC[P+](c1ccccc1)(c1ccccc1)c1ccccc1 [Decyl-triphenylphosphonium] |  |  | 1.4 |  |  | CC50 [1, 10]: 1.41 µM; IC50 [2, 11]: 0.98 µM
C[C@]12CC[C@H](O)CC1=CC[C@@H]1[C@@H]2CC[C@]2(C)C(=O)CC[C@@H]12 [Dehydroepiandrosterone] | 296 µM | 510 µM | 0.6 |  |  | 
CNCCCN1c2ccccc2CCc2ccccc21 [Despramine] |  |  | 1.0 | 50.03 µM | 51.13 µM | 
CS[C@H]1SC[C@H]2C(=O)N(C)[C@@H](C(C)C)C(=O)OC[C@@H](NC(=O)c3cnc4ccccc4n3)C(=O)N[C@@H](C)C(=O)N(C)[C@@H]1C(=O)N(C)[C@@H](C(C)C)C(=O)OC[C@@H](NC(=O)c1cnc3ccccc3n1)C(=O)N[C@@H](C)C(=O)N2C [Echinomycin] |  |  | 0.2 |  |  | CC50 [1, 10]: 0.42 µM; IC50 [2, 11]: 2.86 µM
Nc1nc(O)c2ncn(COC(CO)CO)c2n1 [GCV, ganciclovir] |  |  |  |  |  | SCs in lungs (luminescence, p16 mRNA) [3]: reduced IR-induced SCs; toxicity to mice [4]: non-toxic to wild-type or p16-3MR mice; SASP in lungs [5]: suppressed the SASP induced by TBI
OO [Hydrogen peroxide] | 135 µM | 231 µM | 0.58 |  |  | 
C=CCNc1c(O)cc2c(O)c1C[C@@H](C)C[C@H](OC)[C@H](O)[C@@H](C)/C=C(\C)[C@H](OC(N)=O)[C@@H](OC)/C=C\C=C(/C)C(=O)N2 [IPI-504] |  |  | 0.2 |  |  | CC50 [1, 10]: 0.14 µM; IC50 [2, 11]: 0.93 µM
O=c1cc(-c2cccc3c2Sc2ccccc2S3)oc(N2CCOCC2)c1 [KU55933] | 5.1 µM | 30.7 µM | 0.2 |  |  | 
CC(C)C[C@@H](C=O)NC(=O)[C@H](CC(C)C)NC(=O)[C@H](CC(C)C)NC(=O)OCc1ccccc1 [MG132] (Cbz-Leu-Leu-Leu-aldehyde) |  |  | 0.1 |  |  | CC50 [1, 10]: 0.24 µM; IC50 [2, 11]: 1.92 µM

Compound | CC50 [1, 6] | IC50 [2, 7] | LD50 Ratio (NC/SC) [2] | CC50 [1, 8] | IC50 [2, 9] | also measured
Cc1csc(=NC2CCCCC2)n1/N=C/c1ccc(O)c(O)c1O [MIM1] |  |  | 1.0 | >50.00 µM | >50.00 µM | 
O=c1cc(N2CCOCC2)oc2c1ccc1ccccc12 [NU7026] |  |  | 0.7 | 47.02 µM | 64.03 µM | 
COc1ccc(C2=N[C@@H](c3ccc(Cl)cc3)[C@@H](c3ccc(Cl)cc3)N2C(=O)N2CCNC(=O)C2)c(OC(C)C)c1 [Nutlin3] |  |  | 0.1 | 5.62 µM | 82.16 µM | 
S=C=NCCc1ccccc1 [Phenethyl isothiocyanate (PEITC), Phenethyl isothiocyanate] | < 10 µM | > 10 µM | <1.0 |  |  | 
CC1=CC(=O)c2c(O)cccc2C1=O [Plumbagin] | 12.6 µM | 8.7 µM | 1.5 |  |  | 
CCCCCCCCCCCCC/C=C/[C@@H](O)[C@@H](N)CO[C@@H]1O[C@H](CO)[C@H](O)[C@H](O)[C@H]1O [Psychosine] |  |  | 0.9 | 46.32 µM | 52.25 µM | 
CO[C@H]1C[C@@H]2CC[C@@H](C)[C@@](O)(O2)C(=O)C(=O)N2CCCC[C@H]2C(=O)O[C@H]([C@H](C)C[C@@H]2CC[C@@H](O)[C@H](OC)C2)CC(=O)[C@H](C)/C=C(\C)[C@@H](O)[C@@H](OC)C(=O)[C@H](C)C[C@H](C)/C=C/C=C/C=C/1C [Rapamycin] |  |  | 1.0 |  |  | CC50 [1, 10]: > 0.04 µM; IC50 [2, 11]: > 0.04 µM
Oc1ccc(-c2nc(-c3ccncc3)c(-c3ccc(F)cc3)[nH]2)cc1 [SB202190] | > 800 µM | > 800 µM |  |  |  | 
NCCCNCCCCNCCCN [Spermine] | > 40 µM | > 40 µM |  |  |  | 
CC(C)(C)c1ccc(C(O)CCCN2CCC(C(O)(c3ccccc3)c3ccccc3)CC2)cc1 (stereo not shown) [Terfenadine] | 6.13 µM | 6.87 µM | 0.9 |  |  | 
CC(/C=C/C(=O)NO)=C\[C@@H](C)C(=O)c1ccc(N(C)C)cc1 [Trichostatin A(TSA), Trichostatin A] |  |  | 1.87 | 0.72 µM | 0.39 µM | 
O=C(CCCCCCC(=O)Nc1ccccc1)NO [Vorinostat(SAHA), Vorinostat] | 0.85 µM | 2.21 µM | 0.38 |  |  | 
COc1c(O)cc(O)c2c(=O)cc(-c3ccccc3)oc12 [Wogonin] |  |  | 1.0 |  |  | CC50 [1, 10]: > 200 µM; IC50 [2, 11]: > 200 µM
COCCn1c2c([n+](Cc3cnccn3)c1C)C(=O)c1ccccc1C2=O [YM-155] | 78.4 µM | 50 µM | 1.6 |  |  | 
Arsenic trioxide |  |  | 0.9 | 15.65 µM | 18.26 µM | 
Balifomycin A1 |  |  | 1.3 | 29.71 µM | 22.11 µM | 

From US11331328B2, “Compositions and methods for inhibiting antiapoptotic Bcl-2 proteins as anti-aging agents” (priority 2014, dated 2022)
